Assays:
[1] = system: CRE-BAG2 cells expressing β-galactosidase; assay: Cellular retention of coumarin galactopyranoside substrates (Example 17); format: cell-based; settings: 10 μM, hypotonic shock loading, 37° C., excitation 360±20 nm, emission >400 nm
Description: CRE-BAG2 cells are prepared as described in Example 15.
Staining solutions of 4-methylcoumarin β-D-galactopyranoside, 4-chloromethylcoumarin β-D-galactopyranoside and 4-trifluoromethylcoumarin β-D-galactopyranoside, respectively, are prepared that are 10 μM in concentration. Each galactopyranoside substrate is loaded into CRE-BAG2 cells expressing β-galactosidase using brief hypotonic shock for less than five minutes. Cells are then washed free of extracellular substrate and incubated for three hours in fresh culture medium at 37° C. Each cell sample is then illuminated at 360±20 nm, and the fluorescence is observed at >400 nm. Fluorescence intensity data is acquired using a cooled CCD camera and subsequently stored in digital format.

[2] = system: Glutathione Transferase from Equine Liver; assay: Glutathione transferase activity in vitro (Example 14); format: biochemical; settings: room temperature, with GSH
Description: Activity of glutathione transferase in vitro can be assayed essentially by the method of Grants and Matsumura (INSECT PHYSIOL. 18 (6), 615 (1988)). • 1) Reagents: The stock reagents required are: 1) 5-Chloromethylfluorescein (CMF) substrate (Example 1) 10 mg/mL in DMF, diluted 1:10 in reaction buffer to 1 mg/mL; 2). Reaction buffer 100 mM potassium phosphate, 15% glycerol pH 6.8; 3). Glutathione (GSH) 155 mM in 20 mM TRIS, 2 mM DTT, 15% glycerol pH 7.8; 4). Glutathione Transferase from Equine Liver (Sigma #G 6511) 1.0 mg/mL in reaction buffer. • 2) Assay. The reaction mixture consists of 0.7 mL reaction buffer, 0.1 mL GSH, 0.1 mL substrate and 0.1 mL enzyme. The background is measured and subtracted by using 0.1 mL of the reaction buffer instead of the enzyme. Enzymatic activity can be detected at less than 5 minutes at room temperature. Product formation can be detected by separation of the polar product from the less polar substrate by a suitable means such as thin layer chromatography or high performance liquid chromatography. For instance, product accumulation can be detected by thin layer chromatography using A) 15:85 methanol:chloroform or B) 2:5:15 NH4OH:isopropyl alcohol:methanol. […] Alternatively the fluorescence of the product is determined using a fluorometer versus a fluorescein standard with excitation at 492 and emission measured at 515 nm. […]

[3] = system: lacZ positive CRE BAG 2 cells; assay: Staining of living lacZ positive cells with galactosidase substrate (Example 11); format: cell-based
Description: (§1) NIH/3T3 cells (lacZ negative) and CRE BAG 2 cells (3T3 cells transformed with a retrovirus containing lacZ gene) are employed for cellular assays. Both cell lines can be obtained from American Type Culture Collection Co., Rockville, Md. The cells are grown in a humidified atmosphere of 5% CO2 in Dulbecco's modified Eagle's medium supplemented with 10% calf serum, 50 μg/mL gentamicin, 300 μg/mL L-glutamine and 10 mM HEPES pH 7.4.
(§2) 4-Chloromethylumbelliferyl β-D-galactoside (Cl-MUG) (Example 3) is dissolved in DMSO to get a 10 mM stock solution. A 10 mM stock solution of 4-methylumbelliferyl β-D-galactoside (MUG) (Molecular Probes) is also made in DMSO as a control. The stock solutions are kept sealed in brown reagent bottles and stored at −20° C.
(§3) 100 μL of stock solution is added to 10 mL of fresh culture medium to prepare a “working medium” containing 100 μM Cl-MUG. This medium is filter-sterilized by passing through an Acrodisc™ filter (0.45 μm pore size). A working medium containing MUG is prepared in the same way.
(§4) Cells grown on coverslips are transferred to the working medium and incubated at 37° C. under normal conditions. Cells are examined at the desired time for their fluorescence under a Zeiss microscope equipped with a Hoechst filter set (EX […]/EM 480 nm). […] After 6 hours continuous incubation, the fluorescence intensity of stained CRE BAG 2 cells reaches its highest level.

[4] = system: NIH/3T3 cells (lacZ negative); assay: Staining of living lacZ negative cells with galactosidase substrate (Example 11); format: cell-based; settings: 100 μM in working medium, 60 minutes at 37° C., washed with fresh medium
Description: as §1, §2, §3, §4

[5] = system: NIH/3T3 cells and CRE BAG 2 cells; assay: Cytotoxicity of substrate in working medium (Example 11); format: cell-based
Description: as §1, §3
Fluorescence can be detected in the cells for at least 24 hours following washing of the cells with fresh medium.

lacZ positive cells = assay: Dye retention after paraformaldehyde fixation (Example 11); format: cell-based; settings: 3.7% paraformaldehyde fixation, Hoechst filter set
Description: The cells grown on coverslips and incubated with either Cl-MUG or MUG are immersed in 3.7% paraformaldehyde in 80 mM Pipes buffer, pH 6.5 for 4 minutes to allow the paraformaldehyde to penetrate the cells. The cells are then transferred to 3.7% paraformaldehyde in PBS. After 6 minutes, the cells are washed three times with PBS buffer for ten minutes. The coverslips are put on the slides and sealed.
The fixed cells are examined for their fluorescence under a Zeiss microscope equipped with a Hoechst filter set.

[6] = system: lacZ positive CRE BAG 2 cells; assay: Cellular retention after loading by hypoosmotic shock (Example 12); format: cell-based; settings: after incubation for 4 hours, 2 mM
Description: 5-Chloromethylfluorescein di-β-D-galactoside (CMFDG) (Example 1) is dissolved in DMSO to get 20 mM stock solution. A 40 mM stock solution offluorescein di-β-D-galaetoside (FDG) (Molecular Probes) is also made in DMSO as a control. The stock solutions are kept sealed in brown reagent bottles and stored at −20° C.
• (A) FCS-PBS Solution: Phosphate buffered saline (GIBCO), 4% fetal calf serum, 10 mM HEPES, pH 7.2 • (B) Staining Solution: CMFDG: 200 μL of stock solution is diluted with distilled water to 4 mL to get a 1 mM staining solution. FDG: 400 μL of stock solution is diluted to 4 mL with distilled water to get a 4 mM staining solution. 4. Staining and Examination of Cells:
Cells grown on coverslips are transferred to a Petri dish containing 3 mL of FCS-PBS solution and then incubated at 37° C. for 10 minutes. 3 mL of prewarmed (37° C.) 1 mM CMFDG staining solution is added to give a final dye concentration of 0.5 mM The solutions are mixed rapidly. The cells are incubated at 37° C. for exactly one minute. To stop the loading, the cells are transferred to a 1.8 mL of ice-cold FCS-PBS solution. FDG is loaded into cells by using the same procedure except that the final dye concentrations is 2 mM. Cells are then incubated under normal culture conditions to examine the dye retention. Cells are examined without washing at the desired time for their fluorescence under a Zeiss microscope equipped with a FITC filter set (EX 485 nm/EM 530 nm).

NIH/3T3 cells = assay: Cellular retention of rhodamine 110 peptidase substrates (Example 16); format: cell-based; settings: 25 μM; for leakage of enzyme reaction product after staining: 30 minutes at 37° C.; for fluorescence after washing and several hours in fresh media: fluorescein long-pass filter set
Description: NIH/3T3 cells are prepared as described in Example 15.
Staining solutions of bis-(L-leucine)-rhodamine 110 and L-leucine-rhodamine 110-p-chloromethylbenzamide (Example 9), respectively, are prepared that are 25 μM in concentration. Equivalent NIH/3T3 cells are incubated with the same amount of peptidase substrate for thirty (30) minutes at 37° C. in Modified Tyrode's buffered saline (135 mM NaCl, 5 mM KCl, 1 mM MgCl2, 1.8 mM CaCl2, 10 mM NaHEPES, 5.6 mM glucose, pH 7.5, plus 0.1% bovine serum albumin).
The cells are washed and placed in fresh media for several hours.

[7] = 100 μM working medium for 24 hours

In the case of `O=c1cc(C(F)(F)F)c2ccc(O[C@@H]3O[C@H](CO)[C@H](O)[C@H](O)[C@H]3O)cc2o1` [4-trifluoromethylcoumarin β-D-galactopyranoside], the “fluorescence intensity after three hours in fresh culture medium” value (shortened to “fluorescence intensity after three hours”) [1] was “low fluorescent intensity”.
In the case of `O=C1OC2(c3ccc(O)cc3Oc3cc(O)ccc32)c2ccc(CCl)cc21` [CMF, 5-chloromethylfluorescein], the “time at which enzymatic activity can be detected” value [2] was “less than 5 minutes”.
In the case of `O=c1cc(CCl)c2ccc(O[C@@H]3O[C@H](CO)[C@H](O)[C@H](O)[C@H]3O)cc2o1` [Cl-MUG, 7-(β-D-galactopyranosyloxy)-4-chloromethylcoumarin], the “fluorescence of cells under microscope” value ([3]; 100 μM in working medium, 60 minutes at 37° C., washed with fresh medium) was “fluorescence is observed in the cytoplasmic area”, the “continuous incubation time at which fluorescence intensity reaches its highest level” value ([3]; 100 μM working medium) was 6 h and the “fluorescence of cells under microscope” value [4] was “not in 3T3 cells”. The cell morphology [5, 7] was “morphologically normal”, the “population doubling time versus cells in substrate-free medium” value [5, 7] was “same population doubling time” and the “time fluorescence can be detected in the cells following washing with fresh medium” value ([5]; after incubation in working medium) was “at least 24 hours”. For the same compound, the cytotoxicity ([5]; either type of cell) was “no cytotoxicity”, the subculture after preincubation ([5]; preincubated in working medium for 6 hours, subcultured in fresh medium) was “second generation of cells that is normal” and the “fluorescence of fixed cells” value (lacZ positive cells) was “still brightly fluorescent”. For the same compound, the “fluorescence intensity after three hours” value [1] was “brightly fluorescent”.
With `O=C1OC2(c3ccc(O[C@@H]4O[C@H](CO)[C@H](O)[C@H](O)[C@H]4O)cc3Oc3cc(O[C@@H]4O[C@H](CO)[C@H](O)[C@H](O)[C@H]4O)ccc32)c2ccccc21` [FDG, fluorescein di-β-D-galaetoside, reference compound] the “fluorescence of stained cells after 4 hours” value [6] was “very dim with high background fluorescence in the medium”.
For `CC(C)CC(N)C(=O)Nc1ccc2c(c1)Oc1cc(NC(=O)c3ccc(CCl)cc3)ccc1C21OC(=O)c2ccccc21` [L-leucine-rhodamine 110-p-chloromethylbenzamide], the “leakage of enzyme reaction product after staining” value (NIH/3T3 cells) was “significantly less leakage”, the “fluorescence after washing and several hours in fresh media” value (NIH/3T3 cells) was “bright, well-defined staining pattern” and the melting point was 275 °C (dec.).
With `Cc1cc(=O)oc2cc(O[C@@H]3O[C@H](CO)[C@H](O)[C@H](O)[C@H]3O)ccc12` [MUG, 4-methylumbelliferyl β-D-galactoside, reference compound] the “fluorescence of fixed cells” value (lacZ positive cells) was “barely fluorescent” and the “fluorescence intensity after three hours” value [1] was “low fluorescent intensity”.
In the case of `CC(C)CC(N)C(=O)Nc1ccc2c(c1)Oc1cc(NC(=O)C(N)CC(C)C)ccc1C21OC(=O)c2ccccc21` [bis-(L-leucine)-rhodamine 110, reference compound], the “leakage of enzyme reaction product after staining” value (NIH/3T3 cells) was “substantial leakage” and the “fluorescence after washing and several hours in fresh media” value (NIH/3T3 cells) was “no fluorescent signal”.
